Values after ≈ are worked out from the molar mass of the structure shown. Counter-ions that a name gives are not always drawn. Like-named read-outs stand apart in the source and are kept apart here.
Experiments:
tubulin = biological target: T1, tubulin (Sus scrofa, UniProt P02550+P02554); experiment: Inhibition test of tubulin monomer polymerization (Tubulin polymerization assay kit, fluorescence); format: biochemical; settings: 5 µL of 12.5 µM compound solution; fluorescence ex 360 nm / em 420 nm, 37°C; larger value = lower inhibitory efficiency
T1 construct: purchased cytoskeleton BK011P
Description: Tubulin polymerization assay kit (cytoskeleton, Cat. # BK011P) was used to conduct the compound inhibition test of tubulin monomer polymerization.
Before the test, the 96-well plate (Corning Costar, Cat. # 3686) supplied with the kit was first placed in a microplate reader (MD, SpectraMax M5) and heated to 37°C, maintained for 10 minutes. The 96-well plate was then removed, and 5 µL of 12.5 µM compound solution or blank solution was added thereto. The 96-well plate was then placed back into the microplate reader and incubated at 37°C for 1 minute to heat the compound solution to 37°C. The 96-well plate was removed and 50 µL of reaction mixture prepared according to the supplier's instructions was quickly added to each well, completing the sample addition within 1 minute to avoid the formation of bubbles. The 96-well plate was then immediately placed back into the microplate reader, shaken for 5 seconds, and using the Kinetic mode, continuous detection was carried out at 37°C for 30 to 60 minutes under the conditions of excitation light at 360 nm and emission light at 420 nm, with detection every 30 seconds. Taking the detection time as the X-axis and the fluorescence signal value as the Y-axis, the tubulin monomer polymerization curve was obtained. As shown in FIG. 66 and Table 40, the larger the Vmax value and the higher the maximum fluorescence signal value of the polymerization curve, the lower the inhibitory efficiency of the compound.

[1] = system: Human cutaneous squamous cell carcinoma cell A-431; experiment: Cell proliferation inhibition test, A-431; format: cell-based; settings: A-431, 96 h, 4 days incubation
Description: (§1) Human cutaneous squamous cell carcinoma cell A-431 (ATCC, CRL-1555) and actinic keratosis patient-derived cell HT 297.T (ATCC, CRL-7782) proliferation assays were used to detect the inhibitory effect of small molecular compounds on cell proliferation.
A-431 cells and HT 297.T cells were cultured in DMEM medium containing 10% fetal bovine serum and grown at 37°C in a 5% CO2 incubator. Cells on logarithmic phase were seeded into a 96-well cell culture plate at 1000 cells/well, 100 µL per well, and then cultured overnight at 37°C in a 5% CO2 incubator. The next day, 100 µL of gradient-diluted 2× test compound solution was added to each well, with DMSO serving as a positive control, and 10 µM staurosporine (Aladdin, S102392) was set as a negative control group. After the addition of the compounds, the culture plate was incubated for another 4 days at 37°C in a 5% CO2 incubator. After incubation, the Steady-Glo® luciferase assay system (Promega, G9243) was used according to the supplier's instructions to measure the fluorescence signal value on the Envision 2104 Multilabel Reader. The inhibition rate was calculated by the following formula, then the curve was plotted with the Log value of the inhibitor concentration as the X-axis and the inhibition rate as the Y-axis, and the IC50 was calculated using Graphpad 8.0. [formula] […]

[2] = system: actinic keratosis patient-derived cell HT 297.T; experiment: Cell proliferation inhibition test, HT 297.T; format: cell-based, Human; settings: Homo sapiens, 96 h; 4 days incubation
Description: as §1
A-431 cells and HT 297.T cells were cultured in DMEM medium containing 10% fetal bovine serum and grown at 37°C in a 5% CO2 incubator. Cells on logarithmic phase were seeded into a 96-well cell culture plate at 1000 cells/well, 100 µL per well, and then cultured overnight at 37°C in a 5% CO2 incubator. The next day, 100 µL of gradient-diluted 2× test compound solution was added to each well, with DMSO serving as a positive control, and 10 µM staurosporine (Aladdin, S102392) was set as a negative control group. After the addition of the compounds, the culture plate was incubated for another 4 days at 37°C in a 5% CO2 incubator. After incubation, the Steady-Glo® luciferase assay system (Promega, G9243) was used according to the supplier's instructions to measure the fluorescence signal value on the Envision 2104 Multilabel Reader. The inhibition rate was calculated by the following formula, then the curve was plotted with the Log value of the inhibitor concentration as the X-axis and the inhibition rate as the Y-axis, and the IC50 was calculated using Graphpad 8.0. [formula] Table 41: Inhibition results of test compounds on proliferation activity of A-431 and HT 297.T cells

[3] = Thermodynamic solubility test; format: physicochemical; settings: thermodynamic from solid, 4 mg/mL, overnight at room temperature
Description: Phosphate buffer saline (PBS) with a pH of 7.4, FeSSIF solution with a pH of 6.5, and FaSSGF solution with a pH of 1.6 were prepared. The compound was accurately weighed and added to prepared phosphate buffer saline with a pH of 7.4, FeSSIF solution with a pH of 6.5, and FaSSGF solution with a pH of 1.6 to prepare into a solution with a concentration of 4 mg/mL. The solution was shaken at a speed of 1000 rpm for 1 hour, and then incubated overnight at room temperature. The incubated solution was centrifuged at 12,000 rpm for 10 minutes to remove undissolved particles, and the supernatant was transferred to a new centrifuge tube. After the supernatant was appropriately diluted, an acetonitrile solution containing internal standard was added, and a standard curve prepared with the same matrix was used for quantification. Table 42: Thermodynamic solubility test results

[4] = Pharmacokinetic test in mice; format: in vivo; settings: mouse, plasma, male ICR mice
Description: For the pharmacokinetic test in mice, 3 male ICR mice, 20 to 25 g, were used, fasted overnight, and administered by tail vein injection (1 mg/kg or 5 mg/kg). Blood was collected before the administration, and at 15 min, 30 min, 1 hour, 2 hours, 4 hours, 8 hours, and 24 hours after the administration. Another 3 mice were taken and administered by oral gavage (5 mg/kg), and blood was collected before the administration, and at 15 min, 30 min, 1 hour, 2 hours, 4 hours, 8 hours, and 24 hours after the administration. Blood samples were centrifuged at 6800 g at 2 to 8°C for 6 min, and plasma was collected and stored at -80°C. The plasma at each time point was taken and added with an acetonitrile solution containing internal standard in 3 to 5 times the amount. The mixture was vortexed and mixed for 1 min, and centrifuged at 13,000 rpm at 4°C for 10 min. The supernatant was collected, added with water in 3 times the amount, and mixed. An appropriate amount of the mixture was taken for LC-MS/MS analysis. The main pharmacokinetic parameters were analyzed using WinNonlin 7.0 software with non-compartmental model. Table 43: Results 1 of pharmacokinetic tests in mice

[5] = Human liver microsome stability test; format: in vitro ADME; settings: human liver microsomes, NADPH, 37°C, 0-45 min
Description: The human liver microsome stability test was performed by incubating the compound and human liver microsomes in vitro. First, the compound to be tested was prepared into a 10 mM stock solution in DMSO solvent, and then the compound was diluted to 0.5 mM with acetonitrile. Human liver microsomes (Corning) were diluted with PBS into a microsome/buffer solution, and the solution was used to dilute 0.5 mM compound into a working solution, in which the concentration of the compound was 1.5 µM, and the concentration of human liver microsomes was 0.75 mg/mL. A deep-well plate was taken, 30 µL of the working solution was added per well, and then 15 µL of pre-heated 6 mM NADPH solution was added thereto to initiate a reaction, and the reaction was incubated at 37°C. At 0, 5, 15, 30 and 45 min of the incubation, 135 µL of acetonitrile was added to the corresponding wells to terminate the reaction. After the reaction was terminated with acetonitrile at the last time point of 45 min, the deep-well plate was vortexed and shaken for 10 min (600 rpm), and then centrifuged for 15 min. After centrifugation, the supernatant was collected, and added with purified water in a ratio of 1:1 to perform LC-MS/MS detection. A ratio of a peak area of compound to a peak area of internal standard at each time point was obtained, and the peak area ratios of the compound at 5, 15, 30 and 45 min were compared with the peak area ratio at 0 min to calculate the remaining percentage of the compound at each time point. T1/2 was calculated by using GraphPad 5 software. Table 45: Results of human liver microsome stability test

[6] = Hygroscopicity test by dynamic vapor sorption (DVS); format: physicochemical
Description: The dynamic vapor sorption (DVS) curve was collected on DVS IntrInsic from SMS (surface measurement systems). The relative humidity at 25°C was corrected using the deliquescence points of LiCl, Mg(NO3)2, and KCl. Table 18 DVS test parameters
The percentage change in sample mass was collected under constant temperature at 25°C as humidity varied from 0%RH to 95%RH.

[7] = Solid-state stability (XRPD and HPLC after open storage); format: physicochemical; settings: for Crystal form: XRPD
Description: The purity test, dynamic solubility test, and stability test in the assay were measured using an Agilent 1260 high-performance liquid chromatograph, and the salt formation molar ratio of ions was tested by ion chromatography, and the analytical conditions are shown in Table 19 and Table 20. Table 19 High-performance liquid chromatography test conditions

[8] = Variable humidity XRPD (VH-XRPD); format: physicochemical
From the text: The XRPD pattern was collected on an X-ray powder diffraction analyzer produced by PANalytacal, and the scanning parameters are shown in Table 16. Table 16 XRPD test parameters
Under low-humidity conditions (e.g., 30% RH), the sample reverts to the anhydrous crystal form A of the fumarate salt.

[9] = Dynamic solubility experiment at 37°C (water, SGF, FaSSIF, FeSSIF); settings: for S: solubility: solid feed 10 mg/mL; for pH: pH value of the filtrate
Description: (§2) Rotating mixing was carried out at 37°C at a solid feed concentration of 10 mg/mL (calculated as the compound of Formula I). […] After sampling at each time point, the samples were centrifuged (10000 rpm) and filtered (0.45 µm PTFE filter head), and the HPLC concentration and pH value of the filtrate were measured.
(§3) 100 mg of NaCl and 50 mg of Triton X-100 were weighed into a 50 mL volumetric flask, and purified water was added to complete dissolution. 816 µL of 1 M hydrochloric acid was added thereto, and the pH was adjusted to 1.8 with 1 M hydrochloric acid or 1 M NaOH solution. Purified water was added to make up to volume.
(§4) 340 mg of anhydrous NaH2PO4 and 620 mg of NaCl were weighed into a 100 mL volumetric flask. Purified water was added to complete dissolution, followed by addition of 55.44 µL of 50% NaOH solution, and the pH was adjusted to 6.5 using 1M HCl or 1M NaOH solution. Purified water was added to make up to volume. 110 mg of SIF powder was then weighed into a 50 mL volumetric flask, added with the above solution to complete dissolution and make up to volume.
(§5) 0.82 mL of glacial acetic acid and 1.18 g of NaCl were added to a 100 mL volumetric flask. Purified water was added to complete dissolution, followed by addition of 528 µL of 50% NaOH solution, and the pH was adjusted to 5.0 using 1M HCl or 1M NaOH solution. Purified water was added to make up to volume. 560 mg of SIF powder was then weighed into a 50 mL volumetric flask, added with the above solution to complete dissolution and make up to volume.

[10] = intravenous injection administration (1 mg/kg)
[11] = oral gavage administration (5 mg/kg)

T1 sequence (P02550 whole entry): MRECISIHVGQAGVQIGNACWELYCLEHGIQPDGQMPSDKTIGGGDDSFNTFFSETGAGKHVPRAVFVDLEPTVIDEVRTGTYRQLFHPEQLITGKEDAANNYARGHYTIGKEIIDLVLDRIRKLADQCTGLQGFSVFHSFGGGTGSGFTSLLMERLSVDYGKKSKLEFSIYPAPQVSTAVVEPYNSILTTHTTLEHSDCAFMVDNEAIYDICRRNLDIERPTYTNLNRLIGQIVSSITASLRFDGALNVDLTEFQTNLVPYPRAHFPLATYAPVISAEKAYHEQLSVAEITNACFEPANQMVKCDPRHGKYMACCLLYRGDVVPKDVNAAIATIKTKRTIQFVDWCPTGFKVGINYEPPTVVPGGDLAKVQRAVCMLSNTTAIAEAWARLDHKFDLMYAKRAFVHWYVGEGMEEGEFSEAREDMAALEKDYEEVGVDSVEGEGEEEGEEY
T1 sequence (P02554 whole entry): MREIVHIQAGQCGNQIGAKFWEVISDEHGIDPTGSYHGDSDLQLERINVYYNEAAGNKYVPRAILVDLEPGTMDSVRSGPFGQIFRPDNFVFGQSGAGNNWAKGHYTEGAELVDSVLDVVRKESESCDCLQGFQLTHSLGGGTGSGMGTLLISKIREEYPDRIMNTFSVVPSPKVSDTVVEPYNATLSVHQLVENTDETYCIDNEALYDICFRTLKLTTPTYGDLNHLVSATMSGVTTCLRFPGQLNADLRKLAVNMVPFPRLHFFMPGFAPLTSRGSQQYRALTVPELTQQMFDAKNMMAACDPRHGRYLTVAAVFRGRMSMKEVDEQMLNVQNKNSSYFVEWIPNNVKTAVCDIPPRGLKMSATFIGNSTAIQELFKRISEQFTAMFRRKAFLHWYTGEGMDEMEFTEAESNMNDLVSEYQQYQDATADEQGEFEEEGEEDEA
Description for physchem: as §2, §3, §4, §5

Compound: O=C(Cc1ccc(-c2ccc(OCCN3CCOCC3)cc2)cn1)NCc1ccccc1 [Control compound, Tirbanibulin, reference compound]
- Maximum signal value (tubulin): 611
- IC50 [1]: 40.3 nM
- IC50 [2]: 85.4 nM
- solubility ([3]; FeSSIF solution, FeSSIF (pH 6.5), read-out: Solubility (µg/mL) FeSSIF (pH 6.5)): 60.5 µg/mL (≈ 140 µM)
- solubility ([3]; phosphate buffer saline (PBS), aqueous buffer, PBS (pH 7.4), read-out: Solubility (µg/mL) PBS (pH 7.4)): 9.77 µg/mL (≈ 22.6 µM)
- AUC(0-t) [4, 10]: 525 ng·h/mL
- clearance [4, 10]: 31.3 mL/min/kg
- AUC(0-t) [4, 11]: 1820 ng·h/mL
- Cmax [4, 11]: 1010 ng/mL
- half-life at 1 µM [5]: 32.2 min

Compound: Cc1cc(OCCN2C[C@H]3COC[C@H]3C2)ccc1-c1ccc(CC(=O)NCc2ccccc2)nc1 [Crystal form A of fumarate salt]
- hygroscopicity ([6]; DVS, 25°C, 0%RH to 95%RH, listed as crystal form A of the fumarate salt): significantly hygroscopic above 70% RH
- weight change in DVS test ([6]; high-humidity conditions (>70% RH)): significant weight gain
- Purity (area%) ([7]; 25°C/60%RH/open, 1 week): 97.02 area%
- Relative to initial (%) ([7]; 25°C/60%RH/open, 1 week): 100.0%
- Crystal form ([7]; 25°C/60%RH/open, 1 week): Crystal form A of fumarate salt
- Purity (area%) ([7]; 40°C/75%RH/open, 1 week): 97.09 area%
- Relative to initial (%) ([7]; 40°C/75%RH/open, 1 week): 100.1%
- Crystal form ([7]; 40°C/75%RH/open, 1 week): Crystal form A of fumarate salt
- Purity (area%) ([7]; Initial): 96.99 area%
- XRPD change at high humidity ([8]; placed at 85% RH): shift in diffraction peaks
- crystal form after return to low humidity ([8]; returned to 30% RH): converted back to the crystal form A of the fumarate salt
- solubility at 1 h (physchem; fessif): 3630 µg/mL
- solubility at 4 h (physchem; fessif): 3600 µg/mL
- solubility at 24 h (physchem; fessif): 3610 µg/mL
- solubility at 1 h (physchem; sgf): 9650 µg/mL
- solubility at 4 h (physchem; sgf): 9820 µg/mL
- solubility at 24 h (physchem; sgf): 9170 µg/mL
- S: solubility ([9]; FaSSIF, 1 hour, 60 min): 8720 µg/mL
- S: solubility ([9]; FaSSIF, 4 hours, 240 min): 8940 µg/mL
- S: solubility ([9]; FaSSIF, 24 hours, 1440 min): 8240 µg/mL
- S: solubility ([9]; H2O, 1 hour, 60 min): 9440 µg/mL
- S: solubility ([9]; H2O, 4 hours, 240 min): 9720 µg/mL
- S: solubility ([9]; H2O, 24 hours, 1440 min): 9380 µg/mL
- pH ([9]; FaSSIF, 1 hour): 4.3
- pH ([9]; FaSSIF, 4 hours): 4.4
- pH ([9]; FaSSIF, 24 hours): 4.4
- pH ([9]; FeSSIF, 1 hour): 4.6
- pH ([9]; FeSSIF, 4 hours): 4.6
- pH ([9]; FeSSIF, 24 hours): 4.6
- pH ([9]; H2O, 1 hour): 4.0
- pH ([9]; H2O, 4 hours): 4.0
- pH ([9]; H2O, 24 hours): 4.0
- pH ([9]; SGF, 1 hour): 3.4
- pH ([9]; SGF, 4 hours): 3.4
- pH ([9]; SGF, 24 hours): 3.4
